Test results published in patent publication US8133887B2, “Oxaphenanthrene derivatives” (Merck Patent GmbH, priority 2005, dated 2012).

What was measured:
[1] = molecular target: human CB2 receptor (Homo sapiens, UniProt P34972); assay: CB2 (h) receptor ligand binding (competition)
Description: (§1) The specific ligand binding to the receptors is defined as the difference between complete binding and non-specific binding determined in the presence of an excess of unlabelled ligand (see, for example, MUNRO, S., THOMAS, K. L. and ABU-SHAAR, M. (1993), Molecular characterisation of a peripheral receptor for cannabinoids.
(§2) The IC50 values (concentration necessary for half-maximum inhibition of the specific control binding) and Hill coefficients (nH) are obtained by non-linear regression analyses of the competition curves, with the curve matching being carried out in accordance with the Hill equation.
(§3) The inhibition constants (Ki) are calculated in accordance with the Cheng Prusoff equation (Ki=IC50/1+(L/KD)).

[2] = molecular target: human CB1 receptor (Homo sapiens, UniProt P21554); assay: CB1 (h) receptor ligand binding (competition)
Description: as §1, §2, §3

[3] = calculated by Cheng Prusoff equation
[4] = half-maximum inhibition of specific control binding
[5] = non-linear regression of competition curve

human CB2 receptor, sequence (P34972 whole entry): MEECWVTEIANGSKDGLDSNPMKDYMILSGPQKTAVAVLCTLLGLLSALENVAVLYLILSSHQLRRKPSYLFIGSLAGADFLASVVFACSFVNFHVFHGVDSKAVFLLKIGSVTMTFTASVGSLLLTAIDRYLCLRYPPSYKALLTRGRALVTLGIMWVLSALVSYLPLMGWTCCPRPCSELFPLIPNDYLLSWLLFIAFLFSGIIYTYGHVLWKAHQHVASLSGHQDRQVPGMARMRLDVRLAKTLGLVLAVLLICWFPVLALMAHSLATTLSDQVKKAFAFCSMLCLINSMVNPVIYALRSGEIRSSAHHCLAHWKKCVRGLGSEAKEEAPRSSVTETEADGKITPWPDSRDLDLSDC
human CB1 receptor, sequence (P21554 whole entry): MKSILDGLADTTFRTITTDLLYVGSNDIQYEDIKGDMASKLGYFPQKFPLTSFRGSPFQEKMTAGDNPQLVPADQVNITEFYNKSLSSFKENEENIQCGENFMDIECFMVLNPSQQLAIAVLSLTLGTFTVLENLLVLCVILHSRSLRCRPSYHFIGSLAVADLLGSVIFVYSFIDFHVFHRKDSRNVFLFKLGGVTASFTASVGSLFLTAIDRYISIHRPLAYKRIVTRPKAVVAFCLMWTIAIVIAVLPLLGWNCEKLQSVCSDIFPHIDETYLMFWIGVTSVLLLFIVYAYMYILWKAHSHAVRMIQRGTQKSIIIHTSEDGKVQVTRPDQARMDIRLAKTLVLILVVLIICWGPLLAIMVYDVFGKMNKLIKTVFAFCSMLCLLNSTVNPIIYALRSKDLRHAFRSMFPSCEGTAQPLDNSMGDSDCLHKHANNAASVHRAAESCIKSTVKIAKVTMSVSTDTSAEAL

With `CCCCCc1cc(O)c2c(c1)OC(F)(F)C1CCCCC21` (stereo not drawn) [Compound Ia] the Ki [1, 3] was 0.92 µM, the IC50 [1, 4] was 1.4 µM and the “nH (Hill coefficient)” value [1, 5] was 0.9. For the same compound, the Ki [2, 3] was 1.9 µM, the IC50 [2, 4] was 2.2 µM and the “nH (Hill coefficient)” value [2, 5] was 1.5.
